The target of one experiment is T1, human EBP (Homo sapiens, UniProt Q15125).
T1 construct: endogenous in cells; host or cells: human cortical spheroids derived from pluripotent stem cells
Description: Zymostenol level in human cortical spheroids (on-target EBP inhibition). In kind it is cell-based. The settings on record: 100 nM, versus DMSO.

Experiment [1] relates to newly myelinated fibers within the spinal cord. The experiment is described as follows: LPC-induced focal demyelination in the dorsal column of the spinal cord. In kind it is in vivo, C57BL/6 female mice. The settings on record: 25 mg/kg intraperitoneally daily, days 4 to 13 post laminectomy, versus vehicle. How it is done: Focal demyelination in the dorsal column of the spinal cord was induced by the injection of 1% LPC solution. 12 week old C57BL/6 female mice were anesthetized using isoflurane and T10 laminectomies were performed. 1 μl of 1% LPC was infused into the dorsal column at a rate of 15 al/hour. At day 4, animals were randomized into treatment groups prior to treatment (2 animals were excluded due to surgical complications). […] Drugs were dissolved in DMSO and ethanol or corn oil and then diluted with sterile saline for injections. This experiment was done in a blinded manner: compounds were coded to ensure the researchers performing the experiments were unaware of the treatment being administered to each animal. […] Mice were anesthetized using ketamine/xylazine rodent cocktail and then euthanized by transcardial perfusion with 4% PFA, 2% glutaraldehyde, and 0.1 M sodium cacodylate. […] The number of myelinated axons per unit areas was counted from sections in the middle of each lesion and then averaged over each treatment group. […]
Focal demyelination in the dorsal column of the spinal cord was induced by the injection of 1% LPC solution. […] The number of myelinated axons per unit area was counted from sections obtained from the middle of each lesion and then averaged over each treatment group. All sections within the lesion area were scored. […]

A further experiment relates to EpiSC-derived OPCs. The experiment is described as follows: Formation of differentiated MBP+ oligodendrocytes from OPCs in vitro (high-content imaging). In kind it is cell-based, mouse. From the text: EpiSC-derived OPCs were obtained using in vitro differentiation protocols and culture conditions described previously. To ensure uniformity throughout all in vitro screening experiments, EpiSC-derived OPCs were sorted to purity by fluorescence activated cell sorting at passage five with conjugated CD 140a-APC (eBioscience, 17-1401; 1:80) and NG2-AF488 (Millipore, AB5320A4; 1:100) antibodies. Sorted batches of OPCs were expanded and frozen down in aliquots. OPCs were thawed into growth conditions for one passage before use in further assays. Cultures were regularly tested and shown to be mycoplasma free.
EpiSC-derived OPCs were grown and expanded in poly-ornithine (PO) and laminin-coated flasks with growth medium (DMEM/F12 supplemented with N2-MAX (R&D Systems), B-27 (ThermoFisher), GlutaMax (Gibco), FGF2 ([…], R&D systems, 233-FB-025) and PDGF-AA ([…], R&D systems, 233-AA-050) before harvesting for plating. The cells were seeded onto poly-D-lysine 96-well CellCarrier plates (PerkinElmer) coated with laminin (Sigma, L2020; 15 μg/ml) using multi-channel pipet. For the experiment, 800,000 cells/mL stock in differentiation medium (DMEM/F12 supplemented with N2-MAX and B-27) was prepared and stored on ice for 2 h. […]
Plates were imaged on the Operetta High Content Imaging and Analysis system (PerkinElmer) and a set of 6 fields captured from each well resulting in an average of 1200 cells being scored per well. […] Each traced nucleus region was then expanded by 50% and cross-referenced with the […] (MBP) stain to identify oligodendrocyte nuclei, and from this the percentage of oligodendrocytes was calculated. In some experiments, the total process length of MBP+ oligodendrocytes was calculated as previously described.
OPCs were generated from the EpiSC5 cell line. […] To ensure uniformity throughout all in vitro screening experiments, EpiSC-derived OPCs were sorted to purity by fluorescence activated cell sorting at passage five with conjugated CD 140a-APC (eBioscience, 17-1401; 1:80) and NG2-AF488 (Millipore, AB5320A4; 1:100) antibodies. […]

Structures are written as SMILES.

T1 sequence (Q15125 whole entry): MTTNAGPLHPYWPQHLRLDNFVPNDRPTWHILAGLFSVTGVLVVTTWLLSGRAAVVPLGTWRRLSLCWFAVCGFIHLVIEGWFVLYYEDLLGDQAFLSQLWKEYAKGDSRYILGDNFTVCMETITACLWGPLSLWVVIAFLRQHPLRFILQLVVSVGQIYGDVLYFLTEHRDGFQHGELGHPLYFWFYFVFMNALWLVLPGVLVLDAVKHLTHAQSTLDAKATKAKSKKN

In the case of `CCN(C/C=C\c1ccc(C2CCCCC2)c(Cl)c1)C1CCCCC1` [Cis-N-cyclohexyl-N-ethyl-3-(3-chloro-4-cyclohexylphenyl)prop-2-enylamine], the “zymostenol in human cortical spheroid cells (FIG. 6)” value on human EBP was “accumulation of EBP substrate zymostenol”. In experiment [1], the “myelin formation in the demyelinated lesion, electron microscopy (FIG. 7C)” value is “new myelin formation” and the “number of toluidine Blue-stained newly myelinated fibers within the spinal cord (FIG. 7F)” value was “significantly increased”. For the same compound, the “number of differentiated MBP+ oligodendrocytes from OPCs compared with ketoconazole” value in the experiment with EpiSC-derived OPCs (63 nM, 125 nM, 250 nM and 500 nM versus ketoconazole 2.5 μM) is reported as “at higher rates than ketoconazole”. In the experiment on EpiSC-derived OPCs (0.03, 0.1, 0.3 and 1 um, 40,000 cells per well, 3 days), the “formation of MBP+ oligodendrocytes in culture (FIG. 1A)” value is listed as “enhances formation of MBP+ oligodendrocytes”. Moreover, the “formation of MBP+ oligodendrocytes in in vitro cultures of OPCs (FIG. 4)” value with EpiSC-derived OPCs (wider range of concentrations (2 nM to 500 nM), 50,000 cells per well, N2B27 media, no growth factors) is “enhances formation of MBP+ oligodendrocytes”.

The record behind these values is patent US10918610B2, “Compounds and methods of promoting myelination” (Case Western Reserve University, priority 2017, dated 2021).
